We go through 11 molecules from patent EP3628672A1 (priority 2018, dated 2020).

In one assay the target is T1, LasB (Pseudomonas aeruginosa, UniProt P14756).
T1 construct: uses as source of enzyme dialysed supernatant from P. aeruginosa PAO1; endogenous in cells; host or cells: P. aeruginosa PAO1 culture supernatant, filtered and dialysed
Briefly: Elastin assay to determine % inhibition (Elastin Congo-Red, dialysed culture supernatant). It counts as biochemical, P. aeruginosa PAO1. The note with it: read-out: Elastin hydrolysis % inhibition @ 50 / 25 µM inhibitor concentration. The method, then: (§1) Experiments were therefore conducted (1) to measure the potency of inhibition of compounds of the invention against purified Pseudomonas aeruginosa LasB enzyme and also experiments were conducted (2) to measure the ability of compounds of the invention to inhibit LasB-catalysed elastin degradation. The first assay uses a commercial fluorescent synthetic peptide and purified LasB enzyme. The LasB hydrolysis kinetics are measured allowing the determination of the IC50 and Ki of the inhibitors; the second is a more physiological assay using dialysed Pseudomonas aeruginosa supernatant as source of enzyme, plus its natural substrate Elastin. It is an "end point assay" that determines the percentage of LasB inhibition by each compound for one particular time point and inhibitor concentration. Technical details are described below:
The Elastin assay uses as source of enzyme dialysed supernatant from P. aeruginosa PAO1 and the Elastin Congo-Red as substrate. The natural LasB substrate, elastin, is complexed with the congo-red dye (Elastin Congo-Red, ECR). The elastolysis activity from the culture supernatant will degrade elastin and release the congo-red dye into the supernatant. This red dye release can be measured with a spectrophotometer.
Method: To determine LasB elastase activity and assess compound inhibition, an overnight culture of P. aeruginosa strain PAO1 is diluted in LB medium. After reaching an OD600nm of 0.6, this culture is diluted and incubated for additional 18-24 hours in a shaking incubator. Culture supernatants are recovered by centrifugation and filtrated through a […] filter. These supernatants are dialysed (filtration molecules < 20kDa) into a 50 mM Tris-HCl pH 7.4, 2.5 mM CaCl2 solution at 4°C under agitation for 24 hours. Supernatant dialysed is then mixed volume/volume with the ECR suspension (20 mg/mL of ECR in 100 mM Tris-HCl pH 7.4 buffer supplemented with 1 mM CaCl2) supplemented with Triton X100 (final concentration of 0.01%) in presence of DMSO (positive control) and/or different concentrations of compound (routinely 50 to 1.56 µM). As a negative control, the dialysed supernatant is replaced by Tris-HCl solution (50 mM Tris-HCl pH 7.4, 2.5 mM CaCl2). The mixed reaction is then incubated overnight in a 37°C shaking incubator. The reaction supernatant is recovered by centrifugation and the release of congo-red is measured by its absorbance at 495 nm (OD495nm).
Percentage inhibition is determined using the following equation: ((OD495nmvalue of positive control−OD495nmvalue of negative control)−(OD495nmvalue of treated supernatant−OD495nmvalue of positive control))/(OD495nmvalue of positive control−OD495nmvalue of negative control) × 100. [formula]

Assay [1] deals with T2, purified LasB protein from P. aeruginosa (Pseudomonas aeruginosa, UniProt P14756).
T2 construct: purchased Merck or Charles River Laboratories
Briefly: Fluorometric assay to determine Ki (Abz-Ala-Gly-Leu-Ala-p-Nitro-Benzyl-Amide substrate). It counts as biochemical. The method, then:
as §1
This assay uses commercially available substrate (Abz-Ala-Gly-Leu-Ala-p-Nitro-Benzyl-Amide (Ex: 340 nm, Em: 415 nm) from Peptide International) and purified LasB protein from P. aeruginosa (provided by Merck or Charles River Laboratories). It is performed to determine LasB elastase activity and assess compound inhibition in 96-well plate format. All compounds of Formula (I) were assessed using the method described below.
Method: 10 to 140 ng/ml purified LasB is incubated with 250 µM Abz-Ala-Gly-Leu-Ala-p-Nitro-Benzyl-Amide in 50 mM Tris-HCl pH 7.4, 2.5 mM CaCl2, 0.01% of Triton X100 at 37°C. LasB activity (corresponding to fluorescence emission induced by substrate hydrolysis) is measured over 30 min at 37°C with a fluorescence plate reader such as the Perkin Elmer Envision or similar. Different range of inhibitor concentrations are routinely assessed depending of inhibitor potency from 0.0016 to 200 µM (2-fold dilutions series) in order to determine IC50.
The equation used to calculate the Ki from IC50 is: Ki = IC50 / (1+([S]/Km)) where [S] = 250 µM and Km = 214 µM.

Like-named read-outs stand apart in the source and are kept apart here.

T1 sequence (P14756 198-498): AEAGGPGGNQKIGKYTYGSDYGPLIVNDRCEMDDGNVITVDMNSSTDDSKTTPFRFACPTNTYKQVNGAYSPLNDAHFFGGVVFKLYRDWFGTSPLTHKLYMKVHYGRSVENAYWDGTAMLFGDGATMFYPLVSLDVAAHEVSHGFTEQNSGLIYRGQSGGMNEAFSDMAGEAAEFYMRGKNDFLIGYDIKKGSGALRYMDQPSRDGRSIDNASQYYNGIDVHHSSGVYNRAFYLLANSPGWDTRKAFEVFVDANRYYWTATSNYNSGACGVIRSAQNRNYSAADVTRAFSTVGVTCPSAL
T2 sequence (P14756 198-498): as above

For `CN(C)CCNC(=O)c1ccc(-c2csc(CNC(=O)C3(CC(=O)O)Cc4ccccc4C3)n2)cc1` [Example 15, 2-[2-[[4-[4-[2-(dimethylamino)ethylcarbamoyl]phenyl]thiazol-2-yl]methylcarbamoyl]indan-2-yl]acetic acid], the inhibition at 25 µM at LasB was 60 to 75%. The molecule also displayed a Ki in assay [1] of 200 to 10000 nM.

As for `CN1CCN(C(=O)c2ccc(-c3csc(CNC(=O)C4(CC(=O)O)Cc5ccccc5C4)n3)cc2)CC1` [Example 16, 2-[2-[[4-[4-(4-methylpiperazine-1-carbonyl)phenyl]thiazol-2-yl]methylcarbamoyl]indan-2-yl]acetic acid], the inhibition at 25 µM on LasB lay within 60 to 75%. Also, the Ki in assay [1] lay in the range of 200 to 10000 nM.

For `CN(C)[C@@H]1CCN(C(=O)c2ccc(-c3csc(CNC(=O)C4(CC(=O)O)Cc5ccccc5C4)n3)cc2)C1` [Example 19, 2-[2-[[4-[4-[(3R)-3-(dimethylamino)pyrrolidine-1-carbonyl]phenyl]thiazol-2-yl]methylcarbamoyl]indan-2-yl]acetic acid], at LasB, the inhibition at 25 µM is 60 to 75%. The Ki in assay [1] is 200 to 10000 nM.

Regarding `CN(C)C1CN(C(=O)c2ccc(-c3csc(CNC(=O)C4(CC(=O)O)Cc5ccccc5C4)n3)cc2)C1` [Example 20, 2-[2-[[4-[4-[3-(dimethylamino)azetidine-1-carbonyl]phenyl]thiazol-2-yl]methylcarbamoyl]indan-2-yl]acetic acid], the inhibition at 25 µM on LasB is 60 to 75%. The same molecule registered a Ki in assay [1] of 200 to 10000 nM.

Consider `CN1CCN(C(=O)c2cccc(-c3csc(CNC(=O)C4(CC(=O)O)Cc5ccccc5C4)n3)c2)CC1` [Example 23, 2-[2-[[4-[3-(4-methylpiperazine-1-carbonyl)phenyl]thiazol-2-yl]methylcarbamoyl]indan-2-yl]acetic acid], for which the inhibition at 25 µM on LasB lay within 60 to 75%. The molecule also had a Ki in assay [1] of 200 to 10000 nM.

Consider `CN1CCN(c2ccc(-c3csc(CNC(=O)C4(CC(=O)O)Cc5ccccc5C4)n3)cc2)CC1` [Example 26, 2-[2-[[4-[4-(4-methylpiperazin-1-yl)phenyl]thiazol-2-yl]methylcarbamoyl]indan-2-yl]acetic acid], for which the inhibition at 25 µM on LasB was in the range of 60 to 75%. In assay [1], this molecule showed a Ki of 50 to 200 nM.

`CN(C)C1CN(c2ccc(-c3csc(CNC(=O)C4(CC(=O)O)Cc5ccccc5C4)n3)cc2)C1` [Example 27]: the inhibition at 25 µM at LasB lay within 60 to 75%. The Ki in assay [1] (Ki calculated from IC50, [S] = 250 µM, Km = 214 µM, 37°C, pH 7.4) is 50 to 200 nM.

For the molecule `CN1CCN(c2cccc(-c3csc(CNC(=O)C4(CC(=O)O)Cc5ccccc5C4)n3)c2)CC1` [Example 28, 2-[2-[[4-[3-(4-methylpiperazin-1-yl)phenyl]thiazol-2-yl]methylcarbamoyl]indan-2-yl]acetic acid], the inhibition at 25 µM on LasB lay within 60 to 75%. Besides, the Ki in assay [1] was 200 to 10000 nM.

Consider `CN1C[C@@H]2CN(c3ccc(-c4csc(CNC(=O)C5(CC(=O)O)Cc6ccccc6C5)n4)cc3)C[C@@H]2C1` [Example 30, 2-[2-[[4-[4-[(3aS,6aR)-2-methyl-1,3,3a,4,6,6a-hexahydropyrrolo[3,4-c]pyrrol-5-yl]phenyl]thiazol-2-yl]methylcarbamoyl]indan-2-yl]acetic acid], for which the inhibition at 25 µM at LasB lay within 10 to 60%. Also, in assay [1], the Ki was 200 to 10000 nM.

With `COc1cc(N2CCN(C)CC2)ccc1-c1csc(CNC(=O)C2(CC(=O)O)Cc3ccccc3C2)n1` [Example 31, 2-[2-[[4-[2-methoxy-4-(4-methylpiperazin-1-yl)phenyl]thiazol-2-yl]methylcarbamoyl]indan-2-yl]acetic acid], the inhibition at 25 µM on LasB lay in the range of 60 to 75%. In addition, in assay [1], the Ki lay within 50 to 200 nM.

On to `COc1cc(N2CC(N(C)C)C2)ccc1-c1csc(CNC(=O)C2(CC(=O)O)Cc3ccccc3C2)n1` [Example 32, 2-[2-[[4-[4-[3-(dimethylamino)azetidin-1-yl]-2-methoxy-phenyl]thiazol-2-yl]methylcarbamoyl]indan-2-yl]acetic acid], for which the inhibition at 25 µM at LasB is > 75%. In assay [1], the Ki lay in the range of 50 to 200 nM.

What is called Ki is the dissociation constant of the complex between target and ligand, obtained from inhibition or displacement.
